≈ marks a conversion by molar mass, not a printed value. Where “and” joins values, the source holds several entries; their conditions need not be identical. Equal values may be shown once. Where a name gives a salt, the structure may show the parent alone. Marks after values point to notes of the source that are not given here.
Tests used:
murine L 1210 leukemia [1] = settings: in vitro, from J. Med. Chem. (1985), 28, 1124-1126; cited from earlier work
[2] = system: L1210 Murine leukemia cells; experiment: In vitro growth inhibition of L1210 murine leukemia cells (Coulter Counter); type: cell-based; settings: Mus musculus, 72 hours of continuous exposure
Experimental: The "in vitro" cytotoxic evaluation was also performed on L 1210 murine leukemia cells using the above mentioned cells maintained in suspension cultures (McCoy's 5A medium supplemented with 10% horse serum, glutamine, penicillin and streptomycin) grown in an humidified environment of 10% carbon dioxide and 90% air at 37°C. The compounds were dissolved in dimethylsulfoxide (DMSO) and added to the suspended cells in appropriate concentrations. After 72 hours of continuous exposure, the cell concentration was counted using a Coulter Counter and growth inhibition calculated using the formula: % growth inhibition = 1 - [cell number treated/cell number DMSO alone] x 100. [formula]
The IC50 was calculated from the growth inhibition data and they are reported in table VII in comparison to the prior art compound 5a (see table I for structure of 5a).
L1210 Murine leukemia cells were routinely maintained in suspension cultures in McCoy's 5A medium supplemented with 10% horse serum glutamine, penicillin and streptomycin and grown in a humidified environment of 10% carbon dioxide and 90% air at 37°C.
To assess the in vitro toxicity, each compound was dissolved in dimethylsulfoxide and added to 1 ml of L1210 cells (10^5 cells/tube) to attain final concentrations of 0.01, 0.1 and 1 µg of drug/ml of culture. After 72 hours of continues exposure to the drug, the cell concentration was determined with a Coulter Counter. Growth inhibition was calculated for each drug using the following formula: % growth inhibition = 1-[cell number treated/cell number DMSO alone] x 100. [formula]
The growth inhibition data was then used to calculate the IC50 value (the calculated drug concentration required to inhibit cell growth by 50% of control.

murine L 1210 leukemia [3] = settings: in vivo, Dose 50 mg/kg; cited from earlier work
L1210 murine leukemia [4] = experiment: In vivo L1210 murine leukemia (ip/ip, d 1, 5, 9), protocol a, 10^6 cells; design: species or system BDF1 mice; settings: days 1, 5 and 9, ip; for %T/C: mean survival time; for LTS: tumor-free at 60 days
Experimental: (§1) L 1210 leukemia cells were intraperitoneally (ip) injected in CDFl mice and treatment was initiated approximately 24 hours after tumor transplantation. Dosages of the drugs were administered ip according to preestablished protocols, usually at 4-day intervals. The studies were done over a 60-day period and the date of death for each animal was recorded. The % T/C was determined using the mean survival time (MST) for each group according to the formula % T/C = [(MST treated)/(MST control)] x 100 [formula]
(§2) • a) L1210 murine leukemia cells were maintained in vivo by weekly intraperitoneal (ip) injections of 10^6 cells in BDF1 mice. For test purposes, mice were inoculated i.p. with 10^6 L1210 cells and treatment was initiated 24 hours later. The desired dose of drug was administered on days 1, 5 and 9. Mice were observed daily for signs of toxicity and survival. The date of death was recorded for each animal that died or was sacrificed during the 60-day study. The mean survival time (MST) for each treatment group was calculated and the % T/C was determined using the following formula: % T/C = [(MST treated)/(MST control)] x 100 [formula] The results are reported in table X • b) L1210 murine leukemia cells were maintained in vivo by weekly intraperitoneal (ip) injections of 10^5 cells in DBA2 mice. For test purposes, CDF1 mice were inoculated i.p. with 10^5 L1210 cells and treatment was initiated 24 hours later. The desired dose of drug was administered on days 1, 5 and 9. Mice were observed daily for signs of toxicity and survival. The date of death was recorded for each animal that died or was sacrificed during the 60-day study. The median survival time (MST) for each treatment group was calculated and the % T/C was determined using the following formula: % T/C = [(MST treated)/(MST control)] x 100 [formula]

P388 Murine Leukemia [5] = experiment: In vivo P388 murine leukemia (iv/iv, d 1, 4, 7); settings: for T/C% (range): median survival time; for LTS: tumor free at 60 days
Experimental: P388 Murine Leukemia cells were maintained in vivo by serial intraperitoneal (i.p.) injections of 10^6 cells in DBA2 mice. For test purposes, CDF1 mice were inoculated intravenously (i.v.) with 10^6 P388 cells and treatment was initiated 24 hr later. The i.v. dose of drug was administered on days 1, 4 and 7. Mice were observed daily for signs of toxicity and survival. The date of death was recorded for each animal that died or was sacrificed during the 60 day study. The median survival time (MST) for each treatment group was calculated and the % T/C was determined using the following formula: % T/C = [(MST treated)/(MST control)] x 100 [formula]

Lovo/DX = experiment: MTT cytotoxicity assay on doxorubicin-resistant subline Lovo/DX; type: cell-based, human
Experimental: (§3) The evaluation of the "in vitro" cytotoxic activity of the compounds of the invention was performed using a human colon adenocarcinoma cell line (Lovo) isolated from a metastatic nodule and a subline with aquired resistance to a number of antitumor agents, among which doxorubicin, VP-16 and vincristine. […] The compounds were tested according to the MTT assay (Mosman, T., "Rapid Colorimetric assay for cellular growth and survival: application to proliferation and cytotoxicity assay", J. Immunol. Methods, (1983), 65, 55-63; Green, L.M., "Rapid colorimetric assay for cell viability; application to the quantitation of cytotoxic and growth inhibitory lymphokines", J. Immunol. Methods, (1984), 70, 257-268) in comparison with mitoxantrone, ametantrone and doxorubicin.
(§4) In vitro biological evaluation: MTT assay on human colon adenocarcinoma Lovo cells.
(§5) The MTT assay was performed according to Mosmann, T., J. Immunol. Methods, (1983), 65, 55-63 and Green, L. M., J. Immunol. Methods, (1984), 70, 257-268.
(§6) Immediately before use, compounds and reference standards are dissolved in proper solvent and subsequently further diluted in complete culture medium. Human colon adenocarcinoma cells Lovo and the subline resistant to doxorubicin (Lovo/DX) (2.5. 10^4 cells/ml) are plated in 96-well plates and preincubated for 24 hours in culture medium. After this time, the cells are exposed to drugs for 144 hours, then the thiazolyl blue tetrazolium bromide solution (MTT solution) is added and the cells are reincubated for 4 hours. The supernatant is removed and 150 µl of dimethylsulfoxide are added to solubilize formazan crystals. The plate is read at 570 nm with microplate reader and the inhibiting concentration of 50% cellular growth (IC50; µg/ml) is calculated.

[6] = system: human colon adenocarcinoma cell line (Lovo); experiment: MTT cytotoxicity assay on human colon adenocarcinoma Lovo cells; type: cell-based; settings: 144 h, read-out: IC50 µg/ml±S.D. LoVo
Experimental: as §3, §4, §5, §6

P388 Murine Leukemia [7] = experiment: In vivo ascitic P388 murine leukemia (ip/ip, d 1, 5, 9); design: species or system CDF1 mice; settings: for % T/C (range): median survival time; for TOX: toxic deaths/total No. of mice
Experimental: Treatment was initiated approximately 24 hours after tumor transplantation and dosages of the drug were administered ip (P388 ip/ip) or iv (P388 iv/iv) according to preestablished protocols, usually at 3-day (P388 iv/iv) or 4-day (P388 ip/ip) intervals. The studies were done over a 60-day period and the date of death for each animal was recorded. The % T/C was determined using the mean survival time (MST) for each group according to the formula % T/C = [(MST treated)/(MST control)] x 100 [formula]
P388 Murine Leukemia cells were maintained in vivo by serial intraperitoneal (ip) injections of 10^6 cells in DBA2 mice. For test purposes, CDF1 mice were inoculated i.p. with 10^6 P388 cells and treatment was initiated 24 hours later. The i.p dose of drug was administered on days 1, 5 and 9. Mice were observed daily for signs of toxicity and survival. The date of death was recorded for each animal that died or was sacrificed during the 60-day study. The median survival time (MST) for each treatment group was calculated and the % T/C was determined using the following formula: % T/C = [(MST treated)/(MST control)] x 100 [formula]

L1210 murine leukemia [8] = experiment: In vivo ascitic L1210 murine leukemia (ip/ip, d 1, 5, 9), protocol b, 10^5 cells; design: species or system CDF1 mice; settings: for %T/C: median survival time; for TOX: toxic deaths/total No. of mice; for LTS: tumor free at 60 days
Experimental: as §1, with “Dosages” for “L 1210 leukemia cells were intraperitoneally (ip) injected in CDFl mice and treatment was initiated approximately 24 hours after tumor transplantation. Dosages”
as §2, with “The mean survival time (MST) for each treatment group was calculated and the % T/C was determined using the following formula: % T/C = [(MST treated)/(MST control)] x 100 [formula] The results are reported in table X • b) L1210 murine leukemia cells were maintained in vivo by weekly intraperitoneal (ip) injections of 10^5 cells in DBA2 mice.” left out

CN(C)CCNc1ccc(NCCN(C)C)c2c1C(=O)c1cccnc1C2=O [Compound 5a, 6,9-bis{[2-(dimethylamino)ethyl]amino}benzo[g]quinoline-5,10-dione, reference compound]
ID50 (murine L 1210 leukemia [1]): 0.16 µg/mL (≈ 0.419 µM) | IC50 [2]: 0.155 µg/mL (≈ 0.406 µM) | T/C (murine L 1210 leukemia [3]): 130 | %T/C (L1210 murine leukemia [4]; Dose 50 mg/kg): 129%

CN(C)CCNc1ccc(NCCN(C)C)c2c1C(=O)c1ccncc1C2=O [Compound 10a, 6,9-Bis{[2-(dimethylamino)ethyl]amino}benzo[g]isoquinoline-5,10-dione]
T/C% (range) (P388 Murine Leukemia [5]; 18 mg/kg/day iv days 1,4,7): 172% and 156% | LTS (P388 Murine Leukemia [5]; 18 mg/kg/day iv days 1,4,7): 0/14 | T/C% (range) (P388 Murine Leukemia [5]; 27 mg/kg/day iv days 1,4,7): 188% and 167% | LTS (P388 Murine Leukemia [5]; 27 mg/kg/day iv days 1,4,7): 0/17 | T/C% (range) (P388 Murine Leukemia [5]; 40 mg/kg/day iv days 1,4,7): 183% and 156% | LTS (P388 Murine Leukemia [5]; 40 mg/kg/day iv days 1,4,7): 0/16 | IC50 [2]: 0.006 µg/mL (≈ 0.0157 µM) | IC50 (Lovo/DX; Homo sapiens, LoVo/DX, MTT assay, 144 hrs drug exposure, read-out: IC50 µg/ml±S.D. LoVo/Dx): 0.085 µg/mL (≈ 0.223 µM) | R.I. (Lovo/DX; R.I. = (IC50 LoVo/Dx)/(IC50 LoVo)): 1.9 | cross resistance with mitoxantrone and ametantrone (Lovo/DX; resistant subline Lovo/DX): no cross resistance | IC50 [6]: 0.045 µg/mL (≈ 0.118 µM) | %T/C (L1210 murine leukemia [4]; Dose 50 mg/kg): 151%

NCCNc1ccc(NCCN)c2c1C(=O)c1ccncc1C2=O [Compound 10i.HCl, 6,9-bis{[2-(amino)ethyl]amino}benzo[g]isoquinoline-5,10-dione]
LTS (day 60) (P388 Murine Leukemia [7]; 3.1 mg/kg/day ip days 1,5,9): 0/8 | % T/C (range) (P388 Murine Leukemia [7]; 3.1 mg/kg/day ip days 1,5,9): 144% | TOX (P388 Murine Leukemia [7]; 3.1 mg/kg/day ip days 1,5,9): 0/8 | LTS (day 60) (P388 Murine Leukemia [7]; 6.25 mg/kg/day ip days 1,5,9): 0/8 | % T/C (range) (P388 Murine Leukemia [7]; 6.25 mg/kg/day ip days 1,5,9): 196% | TOX (P388 Murine Leukemia [7]; 6.25 mg/kg/day ip days 1,5,9): 1/8 | LTS (day 60) (P388 Murine Leukemia [7]; 12.5 mg/kg/day ip days 1,5,9): 0/8 | % T/C (range) (P388 Murine Leukemia [7]; 12.5 mg/kg/day ip days 1,5,9): 239% | TOX (P388 Murine Leukemia [7]; 12.5 mg/kg/day ip days 1,5,9): 0/8 | LTS (day 60) (P388 Murine Leukemia [7]; 25 mg/kg/day ip days 1,5,9): 2/8 | % T/C (range) (P388 Murine Leukemia [7]; 25 mg/kg/day ip days 1,5,9): 367% | TOX (P388 Murine Leukemia [7]; 25 mg/kg/day ip days 1,5,9): 0/8 | IC50 [2]: 0.05 µg/mL | %T/C (L1210 murine leukemia [8]; 6.25 mg/kg/day ip days 1,5,9): 156% | TOX (L1210 murine leukemia [8]; 6.25 mg/kg/day ip days 1,5,9): 0/8 | LTS (L1210 murine leukemia [8]; 6.25 mg/kg/day ip days 1,5,9): 0/8 | %T/C (L1210 murine leukemia [8]; 12.5 mg/kg/day ip days 1,5,9): 175% | TOX (L1210 murine leukemia [8]; 12.5 mg/kg/day ip days 1,5,9): 0/8 | LTS (L1210 murine leukemia [8]; 12.5 mg/kg/day ip days 1,5,9): 1/8 | %T/C (L1210 murine leukemia [8]; 25 mg/kg/day ip days 1,5,9, value calculated on dead mice): 250* % | TOX (L1210 murine leukemia [8]; 25 mg/kg/day ip days 1,5,9): 1/7 | LTS (L1210 murine leukemia [8]; 25 mg/kg/day ip days 1,5,9): 4/7 | %T/C (L1210 murine leukemia [4]; Dose 12.5 mg/kg): 265% | LTS (L1210 murine leukemia [4]; Dose 12.5 mg/kg): 4/6 | %T/C (L1210 murine leukemia [4]; Dose 25 mg/kg): 265% | LTS (L1210 murine leukemia [4]; Dose 25 mg/kg): 5/6

From patent EP0503537B1, “6,9 Bis(substituted-amino)benzo-[g]isoquinoline-5,10-diones” (THE UNIVERSITY OF VERMONT, priority 1991, dated 1992)
